{"source": "patent US20120226031A1", "about": "“PALMARUMYCIN BASED INHIBITORS OF THIOREDOXIN AND METHODS OF USING SAME” (ARIZONA BOARD OF REGENTS, ACTING ON BEHALF OF THE …, priority 2005, published 2012)", "key": {"[1]": {"biological_target": "T1, human glutathione reductase (Homo sapiens, UniProt P00390)", "T1 sequence (P00390 45-522 limits assumed)": "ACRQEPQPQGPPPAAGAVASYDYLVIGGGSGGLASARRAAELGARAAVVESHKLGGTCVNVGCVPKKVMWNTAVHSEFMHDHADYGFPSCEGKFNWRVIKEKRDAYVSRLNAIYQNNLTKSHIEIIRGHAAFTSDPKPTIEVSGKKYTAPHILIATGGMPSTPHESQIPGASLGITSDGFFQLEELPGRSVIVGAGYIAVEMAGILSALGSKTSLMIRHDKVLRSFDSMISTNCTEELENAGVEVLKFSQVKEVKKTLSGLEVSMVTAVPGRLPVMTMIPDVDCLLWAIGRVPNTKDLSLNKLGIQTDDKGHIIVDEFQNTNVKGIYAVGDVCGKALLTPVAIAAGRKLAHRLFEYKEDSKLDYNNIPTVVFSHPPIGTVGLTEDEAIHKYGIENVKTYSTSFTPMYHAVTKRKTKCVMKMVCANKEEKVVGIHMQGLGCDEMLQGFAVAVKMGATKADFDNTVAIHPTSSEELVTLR", "test": "Inhibition of human glutathione reductase (selectivity)", "assay_type": "biochemical", "protocol": "Based upon the observation that PX-916 was rapidly converted to PX-960 in aqueous solution, the ability of PX-960 to inhibit purified human TR was measured and found to be similar to that of PX-916 (Table 2). PX-916 was a selective inhibitor of human TR compared to two other NADPH dependent reductases with a selectivity of at least 200 for human glutathione reductase and human cytochrome P-450 reductase (Table 3)."}, "[2]": {"test_system": "MCF-7 human tumor xenograft TR", "test": "Inhibition of tumor thioredoxin reductase in MCF-7 xenografts", "assay_type": "in vivo, mouse", "conditions": "25 mg/kg/d i.v. five daily doses, 24 hr after last dose", "protocol": "FIG. 3. Inhibition of cellular thioredoxin reductase by PX-916. MCF-7 human breast cancer cells grown in medium containing 1 μM Se for 7 days were treated with PX-916 and total cellular thioredoxin reductase activity measured. A. Time course of the inhibition of the thioredoxin reductase on exposure to 1 μM PX-916. […] In both cases values are the mean of 3 separate determinations and bars are S.E. P≦0.04 or **p≦0.01. C. Inhibition of MCF-7 tumor thioredoxin reductase by PX-916. MCF-7 human breast cancer xenografts were grown in female scid mice implanted with 17-β-estradiol 60 day slow-release pellets until they were ˜300 mm^3. The mice were administered a single dose of PX-916 of 25 mg/kg i.v. and tumors harvested at various times. Thioredoxin reductase activity was measured in tumor homogenates. Values are the mean of 3 mice at each time point and bars are SE. **p<0.01 compared to pretreatment value.\nFIG. 5. Inhibition of tumor HIF-1α, VEGF and thioredoxin reductase by repeated administration of PX-916. Female scid mice were implanted 1d previously with a 90-d 17β-estradiol slow release pellet were inoculated s.c. with 10^7 MCF-7 human breast cancer cells. When the tumors were 300 mm^3, vehicle or 25 mg/kg/d PX-916 was given i.v. for five doses. […]"}, "[3]": {"test_system": "SHP-77 human small cell lung cancer", "test": "Antitumor activity, SHP-77 small cell lung cancer xenograft", "assay_type": "in vivo, mouse", "protocol": "(§1) FIG. 4. Antitumor activity of PX-916. A. Female beige nude mice were inoculated subcutaneously (s.c.) with 10^7 A-673 rhabdomyosarcoma cells. When tumors were 100 mm^3 on day 8 (arrow) dosing was begun with (∘) vehicle alone; (▴) PX-916 10 mg/kg intraperitoneally (i.p.) daily for 4 doses. B. Female scid mice were inoculated s.c. with 10^7 SHP-77 human small cell lung cancer cells. When tumors were 130 mm^3 on day 17 (arrow) dosing was begun with (∘) vehicle alone; (▪) PX-916 10 mg/kg i.v. daily for 8 doses; (▴) PX-916 25 mg/kg i.v. daily for 5 doses. C. Female scid mice implanted 1 day previously with a 17-β-estradiol 60 day slow release pellet were inoculated s.c. with 10^7 MCF-7 human breast cancer cells. When tumors were 180 mm^3 on day 8 (arrow) dosing was begun with (∘) vehicle alone; (⋄) PX-916 27.5 mg/kg i.v. daily for 5 doses. In both A and B values are the mean of 8 mice per group and bars are SE.\n(§2) A single intravenous (i.v.) dose of PX-916 of 25 mg/kg inhibited MCF-7 human tumor xenograft TR up to about 60% at 24 hr and the inhibition was maintained for at least 48 hr (FIG. 3C). […] In this study 3 of eight nice had no histologically detectable tumor when the study was terminated on day 42."}, "[4]": {"test": "Stability in fresh mouse plasma at room temperature", "assay_type": "in vitro ADME", "protocol": "Two metabolite peaks could be seen at 5 minutes, but were undetectable by 30 minutes."}, "[5]": {"test_system": "MCF-7 human breast cancer xenografts", "test": "Antitumor activity, MCF-7 breast cancer xenograft", "assay_type": "in vivo, mouse", "protocol": "as §1, with “When tumors were 180 mm^3 on day 8 (arrow) dosing was begun with (∘) vehicle alone; (⋄) PX-916 27.5 mg/kg i.v. daily for 5 doses.” left out\nas §2"}, "[6]": {"test_system": "HIF-1α", "test": "Tumor HIF-1α immunohistochemistry in MCF-7 xenografts", "assay_type": "in vivo, mouse", "conditions": "five daily doses of 25 mg/kg, 24 hours after last dose", "protocol": "FIG. 5. Inhibition of tumor HIF-1α, VEGF and thioredoxin reductase by repeated administration of PX-916. Female scid mice were implanted 1d previously with a 90-d 17β-estradiol slow release pellet were inoculated s.c. with 10^7 MCF-7 human breast cancer cells. When the tumors were 300 mm^3, vehicle or 25 mg/kg/d PX-916 was given i.v. for five doses. Twenty four hours later, the tumors were removed and stained by immunohistochemistry for HIF-1α and VEGF (A) or assayed for thioredoxin reductase activity (B). Columns mean of four mice, SE. P≦0.05.\nLevels of the HIF-1α transcription factor and its downstream target VEGF are increased by thioredoxin-1 expression. We examined the effect of PX-916 administration on tumor HIF-1α and VEGF levels (FIG. 5A). Twenty-four hours after the last dose of five daily doses of PX-916 of 25 mg/kg, there was a decrease in MCF-7 xenograft staining for both HIF-1α and VEGF. At the same time, levels of tumor thioredoxin reductase activity were decreased by 75% (FIG. 5B)."}, "[7]": {"conditions": "10 mg/kg i.v. daily for 8 doses"}, "[8]": {"conditions": "25 mg/kg i.v. daily for 5 doses"}, "[9]": {"conditions": "27.5 mg/kg i.v. every other day for 5 doses"}}}
{"smiles": "NCC(=O)Oc1ccc2c3c(cccc13)OC1(C=CC(=O)c3c(O)cccc31)O2", "note": "(centres unmarked) [PX-916, O-glycyl naphthoquinone spiroketal]", "values": [{"measurement": "concentration increase needed to inhibit glutathione reductase", "setting": "[1]", "result": "greater than 100 fold"}, {"measurement": "selectivity for human TR vs human glutathione reductase", "setting": "[1]", "result": "at least 200"}, {"measurement": "Selectivity for TR vs glutathione reductase", "setting": "[1]; Table 3", "result": ">200"}, {"measurement": "IC50", "setting": "[1]; Table 3, read-out: Inhibition IC50, glutathione reductase (red blood cell)", "result": "> 50", "unit": "µM"}, {"measurement": "decrease of tumor thioredoxin reductase activity", "setting": "[2]", "result": 75, "unit": "%"}, {"measurement": "tumor growth inhibition", "setting": "[3]; [7]", "result": 39, "unit": "%"}, {"measurement": "tumor growth rate", "setting": "[3]; [7]", "result": "about 91±24 mm^3/day"}, {"measurement": "mice with no histologically detectable tumor on day 42", "setting": "[3]; [8]", "result": "3 of eight"}, {"measurement": "tumor growth inhibition", "setting": "[3]; [8]", "result": 82, "unit": "%"}, {"measurement": "tumor growth rate", "setting": "[3]; 25 mg/kg i.v. daily for 5 doses, 5 days after end of dosing", "result": 27, "unit": "mm^3/day"}, {"measurement": "tumor regressions", "setting": "[3]; in words", "result": "complete tumor regressions were seen in some mice"}, {"measurement": "half-life", "setting": "[4]", "result": "< 2", "unit": "min"}, {"measurement": "tumor growth inhibition", "setting": "[5]; 27.5 mg/kg i.v. daily for 5 doses", "result": 52, "unit": "%"}, {"measurement": "tumor growth rate", "setting": "[5]; 27.5 mg/kg i.v. daily for 5 doses, 5 days after end of dosing", "result": "22±4", "unit": "mm^3/day"}, {"measurement": "tumor growth inhibition", "setting": "[5]; [9]", "result": 52, "unit": "%"}, {"measurement": "tumor growth rate", "setting": "[5]; [9]", "result": "22±8", "unit": "mm^3/day"}, {"measurement": "tumor growth inhibition", "setting": "[5]; 27.5 mg/kg orally for 5 doses", "result": 62, "unit": "%"}, {"measurement": "tumor growth rate", "setting": "[5]; 27.5 mg/kg orally for 5 doses", "result": "18.5±8", "unit": "mm^3/day"}, {"measurement": "antitumor activity following oral administration", "setting": "[5]; oral, at doses that gave i.v. antitumor activity", "result": "Significant antitumor activity was not seen"}, {"measurement": "MCF-7 xenograft staining for HIF-1α", "setting": "[6]", "result": "decrease"}]}
